Laboratory results reported in patent publication US8909483B2, “Direct or indirect diagnostic test for helminth infection” (priority 2002, dated 2014).

B1: r-Sm14: recombinant Sm14 protein expressed by the pRSETA-6×His-Sm14 construct in E. coli BL21(DE3) (protein, UniProt P29498 1-133, looked up)
14 kDa fatty acid-binding …: MSSFLGKWKLSESHNFDAVMSKLGVSWATRQIGNTVTPTVTFTMDGDKMTMLTESTFKNLSCTFKFGEEFDEKTSDGRNVKSVVEKNSESKLTQTQVDPKNTTVIVREVDGDTMKTTVTVGDVTAIRNYKRLS
modifications: 6xHis tag

Experiments:
Assay type in all cases: in vivo, outbred Swiss mice
S. mansoni [1] = assay: First vaccination experiment against S. mansoni (Example 4, FIG. 11); settings: 70 μg peptide + MPL-TDM + Al(OH)3, inguinal route, challenge 100 cercariae 60 days after last immunization, perfused 45 days later
Description: Percentage protection, {(C−V)/C}×100}, of outbred Swiss mice is given after vaccination and subsequent challenge with 100 cercariae. From left to right the bars correspond to vaccination with peptide 1.2, peptide 1.3, peptide 1.4, peptide 2.1, peptide 2.2, peptide 2.3, peptide 2.4, peptide 2.5, peptide 2.6, r-Sm14, saline extract (SE) administered via the footpad, SE administered via the inguinal route, adjuvant and PBS respectively. All peptides were administered via the inguinal route. All peptides were administered in the presence of the adjuvant monophosphoryl lipid A+trehalose dicorynomycolate (MPL-TDM, Ribi ImmunoChem Research Inc.)+Alum.
In this experiment, outbreed Swiss mice were immunized with two intradermal/subcutaneous doses at an interval of 7 days followed by a booster injection, 21 days later. In the case of the peptides, a dose of 70 μg in the presence of the adjuvant monophosphoryl lipid A+trehalose dimycolate (MPL-TDM, Ribi ImmunoChem Research Inc.) and Al(OH)3 was used for all injections. […]
For assays of protection against S. mansoni, the animals were challenged subcutaneously with 100 cercariae, 60 days after the last immunization and perfused 45 days later. Overall protection was calculated by the formula {(C−V)/C}×100, where C is the average number of worms in control animals and V is the average number of worms in vaccinated animals.

S. mansoni [2] = assay: Second vaccination experiment against S. mansoni, footpad route (Example 5, FIG. 12); settings: challenge 100 cercariae; for Percentage protection {(C−V)/C}×100: 70 μg peptide + MPL-TDM + Al(OH)3, footpad route, perfused 45 days later; for Performance (protection) compared with recombinant whole protein r-Sm14: footpad route
Description: Percentage protection is given as in FIG. 9. From left to right the bars correspond to peptide 1.1, peptide 1.3, peptide 1.4, peptide 2.1, peptide 2.5, r-Sm14, adjuvant and PBS respectively. In this experiment all samples were administered via the footpad. All peptides were administered in the presence of adjuvant: monophosphoryl lipid A+trehalose dicorynomycolate (MPL-TDM, Ribi ImmunoChem Research Inc.)+Alum.
In this experiment an identical protocol as Example 4 was employed for a sub-group of peptides including those which appeared most promising (1.1; 1.3; 1.4 and 2.1) together with 2.5 as a control, but employing the footpad as the route of administration.
Animals were challenged subcutaneously with 100 cercariae, 60 days after the last immunization and perfused 45 days later. Overall protection was calculated by the formula {(C−V)/C}×100, where C is the average number of worms in control animals and V is the average number of worms in vaccinated animals.

F. hepatica = assay: Fasciola hepatica protection assay (Example 6, FIG. 13); settings: footpad, oral challenge 3 metacercariae, sacrifice 30 days after challenge
Text: Due to the limited number of parasites used for challenge, animals are considered protected when they present sterile immunity, i.e. no adult worms are present after sacrifice. The mean protection is therefore given as the percentage of sterile animals at sacrifice. From left to right the bars correspond to peptide 1.1, peptide 1.3, peptide 1.4, peptide 2.1, peptide 2.5, r-Sm14+adjuvant, r-Sm14, adjuvant and PBS respectively. The adjuvant used was monophosphoryl lipid A+trehalose dicorynomycolate (MPL-TDM, Ribi ImmunoChem Research Inc.)+Alum.
This example refers to the use of some of the peptides described in Example 1 for vaccination against Fasciola hepatica in the Swiss mouse model. For the Fasciola hepatica protection assay each group (10 outbred Swiss mice/group) received three intradermal/subcutaneous doses via the footpad using an identical protocol to that described above for S. mansoni. Animals were vaccinated with either 70 μg of one of the sub-group of peptides described above (1.1, 1.3, 1.4, 2.1 and 2.5), emulsified in Ribi adjuvant (MPL-TDM) and Al(OH)3 or 10 μg of r-Sm14 (in the presence or absence of adjuvant), or an equivalent amount of adjuvant alone. Vaccinated and non-vaccinated control groups were simultaneously challenged orally with 3 metacercariae of F. hepatica 60 days after immunization and the sacrifice of all animals performed 30 days after challenge.

[3] = with adjuvant MPL-TDM + Al(OH)3, 70 μg peptide or 10 μg r-Sm14

| Molecule | Percentage protection {(C−V)/C}×100 (S. mansoni [1]) | Percentage protection {(C−V)/C}×100 (S. mansoni [2]) [%] | Performance (protection) compared with recombinant whole protein r-Sm14 (S. mansoni [2]) | Percentage protection (percentage of sterile animals at sacrifice) (F. hepatica; [3]) [%] | Percentage protection (percentage of sterile animals at sacrifice) (F. hepatica; absence of adjuvant, 10 μg r-Sm14) [%] |
| --- | --- | --- | --- | --- | --- |
| EKFSESKLTFDGIVREVDGATMKTT (Oligopeptide derived from the fusion of two peptides from Schistosoma mansoni) [Peptide 2.5, Alternate modification to 2.3] | no protection at all and zero |  |  |  |  |
| EKNSESKLTQ (Oligopeptide from Schistosoma mansoni) [Peptide 2.1, Loop between β-strands 6 and 7 of Sm14, residues 85 to 94] |  | 50 | equivalent to that seen for the recombinant whole protein | 100 |  |
| KIGTSVFGTRTSKFDATEMVLDKEE [Peptide 2.6, 2.5 randomized; control peptide of identical amino acid composition] | no protection at all and zero |  |  |  |  |
| VTVGDVTA (oligopeptide from Schistosoma mansoni) [Peptide 1.1, Loop between β-strands 9 and 10 of Sm14, residues 118 to 125] |  | ~50 | equivalent to that seen for the recombinant whole protein | 66.7 |  |
| VTVGDVTANFDAVMSKLG (Oligopeptide derived from the fusion of two peptides from Schistosoma mansoni) [Peptide 1.3, Union of 1.1 and 1.2] |  |  | equivalent to that seen for the recombinant whole protein | 50 |  |
| VTVGDVTGGSDAVMSKLG (Oligopeptide derived from the fusion of two peptides from Schistosoma mansoni) [Peptide 1.4, 1.3 modified] |  |  | equivalent to that seen for the recombinant whole protein | 100 |  |
| B1 |  |  |  | 100 | 100 |
